{
  "source": "patent US20230233617A1",
  "about": "“METHODS FOR DIFFERENTIATING STEM CELLS INTO DOPAMINERGIC PROGENITOR CELLS” (JZ CELL TECHNOLOGIES AB, priority 2020, published 2023)",
  "key": {"[1]": {"system": "hPSC-derived NSCs", "test": "Ventral regional identity of hPSC-derived NSCs at 9 DDC in dSMADi+SAG conditions (NKX2.1, LMX1A, PHOX2B, NKX2.2)", "type": "cell-based, human", "settings": "for identity imposed by RA analogue with inhibition of CYP26 activity: 500 nM analogue for 48-hours plus 500 nM R115866, 9 DDC; for identity imposed by RA analogue: 500 nM for 48-hours; for identity imposed by RA analogue / identity of NSCs: dSMADi+SAG; for identity imposed by RA analogue / identity of NSCs / identity of cells after inhibiting CYP26 activity: 9 DDC"}, "[2]": {"system": "CYP26", "settings": "cited from earlier work"}, "[3]": {"system": "β-catenin", "test": "β-CATENIN nuclear levels in cultures at 2 DDC", "type": "cell-based, human", "settings": "dSMADi+SAG", "from_the_text": "FIG. 2: Specification of NSC with ventral midbrain identity using RA and SHH signaling. (a) Schematic of hPSCs differentiation with timeline of treatment with RA and activator of SHH signaling (SAG) (top). Immunocytochemistry for indicated markers at 9 DDC in cultures differentiated in dSMADi+SAG-condition and pulsed with RA for 1-, 2- or 4-days (bottom). (b) Relative gene expression (FPKM) of indicated genes in 9 DDC cultures differentiated in dSMADi+SAG-conditions and treated with RA for the indicated time. (c) Heatmap and hierarchical clustering of differentially expressed genes of 9 DDC cultures differentiated in dSMADi+SAG-condition and treated with RA for the indicated time. (d) Schematic of gene expression profiles defining distinct ventral progenitors in the diencephalon (Di), midbrain (MB) and hindbrain (HB) positions. (e) Expression of genes associated with the indicated regional progenitors at 14 DDC in cultures differentiated in dSMADi+SAG+RA^2D condition. (f) Immunocytochemistry for β-CATENIN (left) and boxplots of β-CATENIN nuclear levels (right) in cultures at 2 DDC differentiated in dSMADi+SAG-condition (control) and treated with RA or CHIR99021. Boxplot, whiskers define 5th and 95th percentile. Asterisks, Student t test; **p<0.01, ***p<0.001. (g) Immunocytochemistry for the indicated markers in cultures at 14 DDC differentiated in dSMADi+SAG+RA^2D condition. […]"}, "[4]": {"system": "hPSC-derived vMB progenitors", "test": "Neurogenesis and mDA neuron yield in differentiating hPSC cultures (HuCD, TuJ1, TH, GABA immunocytochemistry, electrophysiology)", "type": "cell-based, human", "settings": "with SAG", "from_the_text": "A unique feature of mDA neurons is that they originate from initially non-neuronal floor plate (FP) cells at the ventral midline of the MB, and progenitors must acquire neuronal potential prior to differentiation into neurons^30,44. Few markers distinguish between these states, but downregulation of SHH and upregulation pro-neural bHLH proteins over time correlate with this transition^44. […] In RA^2D+SAG cultures at 21 DDC, ˜30% of DAPI^+ cells accounted for HuCD^+ neurons (FIG. 4d) and many of these had initiated expression of TH (FIG. 4c). When we instead used CHIR99021+SAG to specify LMX1A^+/NKX2.1^− vMB progenitors (FIG. 3b), cells initiated neurogenesis at around 17 DDC (FIG. 4c, d) which is consistent with previous studies^9,13. At 21 DDC, HuCD^+ neurons constituted ˜10% of total cells and few neurons expressed TH (FIG. 4c, d).\nTH^+ neurons acquired a progressively more advanced neuronal morphology with a progressive outgrowth of TH^+ axonal processes in RA^2D+SAG cultures between 30-45 DDC (FIG. 4e, g, h; FIG. 8f (Supplementary FIG. 2f)). TH^+ neurons expressed mDA neuron markers LMX1A, LMX1B, FOXA2, NURR1, and OTX2 at 30-35 DDC (FIG. 4e). […] TH^+ neurons also expressed the mature neuronal marker SYNAPTOPHYSIN and the monoaminergic marker VMAT2 (FIG. 40. A subset of cells expressed GIRK2 or CALBINDIN indicating the presence of both A9- and A10-like subtypes of mDA neurons^45 (FIG. 4f). At 35 DDC, ˜80% of neurons expressed TH^+ which corresponded to ˜65% of total DAPI^+ cells (FIG. 4i, j). ˜10% of neurons expressed GABA (FIG. 4i, j), and some of these co-expressed TH (FIG. 10c (Supplementary FIG. 4c)). Only rare neurons expressing 5-HT or the MN marker PERIPHERIN were detected (FIG. 4i, j). High performance liquid chromatography (HPLC) analyses at 42 DDC established that neurons produced and released dopamine (FIG. 4k, I) but not serotonin (5-HT) or noradrenaline (NA) (FIG. 4k). […] Very few cells expressed Ki67 or phospho-histone H3 at 35-40 DDC indicating low mitotic activity after long-term culturing of cells (FIG. 4i). Functional maturation of mDA neurons in vitro can be monitored by determining the time when hPSC-derived mDA neurons acquire spontaneous action potentials, evoked action potentials and voltage-dependent Na^+ and K^+ currents, and these traits were previously reported to be attained after ˜60 days of culture of FACS-enriched mDA neurons (25+36 days: before/after sorting) using current state-of-the-art protocols^7. […] Neurons showing both spontaneous (FIG. 4m) and evoked action potentials (FIG. 4n) could be recorded at 40 DDC.\n80-90% confluent PSCs cultures were rinsed twice with PBS, treated with EDTA (0.5 mM in PBS) for 5-7 min, and resuspended into single cell suspension in PBS. Cells were spin down at 400 g and resuspended in N2B27 medium (DMEM/F12: Neurobasal (1:1), 0.5×N2 and 0.5×B27 (plus vitamin A) supplements, 1×nonessential amino acids, 1% GlutaMAX, 55 μM β-mercaptoethanol-all from Thermo Fisher Scientific) containing 5 μM SB431542 (Miltenyi Biotech) and 2.5 μM DMH1 (Santa Cruz Biotech) (dual SMAD inhibition), and 10 μM ROCK inhibitor (for the first 48 hours after seeding). Cells were seeded on VTN (2 μg/cm^2) and Fibronectin (FN) (2 μg/cm^2) (Sigma) coated surface at a density of 60,000-80,000 cells/cm^2 for RA- and RA-analogues based experiments, and 20,000 cells/cm^2 for CHIR99021 experiments. SAG1.3 (Santa Cruz Biotechnology), CHIR99021 (Miltenyi Biotech), all-trans RA, 9-cis RA, 13-cis RA, Tazarotenic acid, R115866 (all Sigma), EC23 (Amsbio) were used at concentrations and time points described in the result section. For mDA neuron differentiation (see schematic drawing FIG. 4) neural progenitors were mechanically dissociated at 9 DDC with Stem Cell Passaging Tool (Thermo Fisher Scientific) and seeded at 1:3 ratio in N2B27 medium containing 10 μM ROCK inhibitor (for first 48 hours after dissociation) on VTN and FN coated surfaces. […]"}, "[5]": {"system": "hPSC-derived ventral midbrain dopaminergic progenitors", "test": "Specification of caudal midbrain identity (EN1 immunocytochemistry)", "type": "cell-based, human", "settings": "RA^2D+SAG plus 5 μM CHIR99021 between 4-9DDC", "method": "(a) (a) Immunocytochemical analysis of ventral MB progenitor identities at 14 DDC. […] Nuclei of cells visualized with DAPI staining. (b) Immunocytochemistry of dopaminergic neuron marker TH and caudal midbrain marker EN1 expression in 40 DDC cultures differentiated in indicated conditions.\nCells were fixed for 12 min at room temperature (RT) in 4% paraformaldehyde in PBS, rinsed 3 times in PBST (PBS with 0.1% Triton-X100), and blocked for 1 hour at RT with blocking solution (3% FCS/0.1% Triton-X100 in PBS). Cells were then incubated with primary antibodies overnight at 4° C., followed by incubation with fluorophore-conjugated secondary antibodies for 1 hour at RT. Both primary and fluorophore-conjugated secondary antibodies were diluted in blocking solution. Primary antibodies used are listed in Supplementary Table 1. Appropriate Alexa (488, 555, 647)-conjugated secondary antibodies (Molecular Probes) were used.\nMechanisms underlying specification of midbrain dopamine neuron subtypes remains poorly resolved, but is likely to involve sub-patterning of ventral midbrain dopaminergic progenitors along the mediolateral and rostro-caudal axes of the midbrain (Brignani, S, and Pasterkamp, R. J., Front. Neuroanat. 11, 1-18 (2017)). WNT1 signaling emanating from the isthmic organizer at the midbrain-hindbrain boundary establish polarity of midbrain progenitors along the rostro-caudal axis by inducing a caudal^HIGH-to-rostral^LOW expression gradient of the homeodomain proteins EN1 and EN2 (Wurst, W. and Bally-Cuif, L. Nat. Rev. Neuroscience 2, 99-108 (2001))."}},
  "note": "Entries after “also recorded” stand apart in the source; their conditions may differ.",
  "data": [
    {"smiles": "CC1=C(/C=C/C(C)=C\\C=C\\C(C)=C\\C(=O)O)C(C)(C)CCC1", "note": "[9-cis RA, 9-cis-Retinoic acid]", "values": [
      {"measurement": "identity imposed by RA analogue with inhibition of CYP26 activity", "setting": "[1]", "result": "shift into a PHOX2B^+ HB identity"},
      {"measurement": "identity imposed by RA analogue", "setting": "[1]", "result": "LMX1A^+/NKX2.1^− vMB identity; also recorded: LMX1A+/NKX2.1− vMB identity"},
      {"measurement": "susceptibility to CYP26-mediated oxidation", "setting": "[2]", "result": "substrates for CYP26-mediated oxidation"}
    ]},
    {"smiles": "CC1=C(/C=C/C(C)=C/C=C/C(C)=C\\C(=O)O)C(C)(C)CCC1", "note": "[13-cis RA, 13-cis-Retinoic acid]", "values": [
      {"measurement": "identity imposed by RA analogue with inhibition of CYP26 activity", "setting": "[1]", "result": "shift into a PHOX2B^+ HB identity"},
      {"measurement": "identity imposed by RA analogue", "setting": "[1]", "result": "LMX1A^+/NKX2.1^− vMB identity; also recorded: LMX1A+/NKX2.1− vMB identity"},
      {"measurement": "susceptibility to CYP26-mediated oxidation", "setting": "[2]", "result": "substrates for CYP26-mediated oxidation"}
    ]},
    {"smiles": "Cc1c[nH]c(-c2cnc(NCCNc3ccc(C#N)cn3)nc2-c2ccc(Cl)cc2Cl)n1", "note": "[CHIR99021]", "values": [
      {"measurement": "identity of NSCs", "setting": "[1]; 1 μM", "result": "LMX1A^+/NKX2.1^− identity"},
      {"measurement": "identity of NSCs", "setting": "[1]; 0.8 and 0.6 μM", "result": "diencephalic LMX1A^+/NKX2.1^+ character"},
      {"measurement": "identity of NSCs", "setting": "[1]; 1.2 and 1.4 μM", "result": "NKX2.2^+/LMX1A^− presumptive HB identity"},
      {"measurement": "β-catenin in nuclei", "setting": "[3]", "result": "translocation of β-catenin into nuclei"},
      {"measurement": "HuCD+ neurons as share of total DAPI+ cells", "setting": "[4]; 21 DDC", "result": "~10", "unit": "%"},
      {"measurement": "time of initiation of neurogenesis (first neurons)", "setting": "[4]", "result": "around 17 DDC"},
      {"measurement": "identity of ventral midbrain progenitors (EN1)", "setting": "[5]; 14DDC", "result": "a majority of LMX1A^+/OTX2^+ cells also expressed EN1"},
      {"measurement": "EN1 expression in TH+ dopamine neurons", "setting": "[5]; 40DDC", "result": "a large fraction of TH^+ dopamine neurons expressed EN1"}
    ]},
    {"smiles": "CC1(C)CCC(C)(C)c2cc(C#Cc3ccc(C(=O)O)cc3)ccc21", "note": "[EC23]", "values": [
      {"measurement": "identity imposed by EC23", "setting": "[1]; 200 nM EC23, EC23^1D+SAG or EC23^2D+SAG, with or without inhibition of CYP26", "result": "PHOX2B^+ HB-identity; also recorded: hindbrain identity"},
      {"measurement": "EC23 concentration imposing a vMB-identity", "setting": "[1]; FIG. 9c titration", "result": 10, "unit": "nM"},
      {"measurement": "duration of EC23 treatment required to induce LMX1A+/NKX2.1− vMB cells", "setting": "[1]; reduced EC23 concentration", "result": 24, "unit": "h"},
      {"measurement": "reduction in concentration required for EC23 to induce LMX1A+/NKX2.1− vMB cells", "setting": "[1]; titration, relative to 200 nM, treatment for 24 hours", "result": 20, "unit": "fold"}
    ]},
    {"smiles": "CCC(CC)C(c1ccc(Nc2nc3ccccc3s2)cc1)n1cncn1", "note": "(stereo not shown) [R115866]", "values": [
      {"measurement": "identity of cells after inhibiting CYP26 activity", "setting": "[1]; 100 nM R115866, RA+SAG cultures", "result": "mix of LMX1A^+/NKX2.1^− vMB cells and PHOX2B^+ HB cells"},
      {"measurement": "identity of cells after inhibiting CYP26 activity", "setting": "[1]; 500 nM R115866 between 0-3 DDC, RA^1D+SAG or RA^2D+SAG cultures", "result": "PHOX2B^+ HB-identity"},
      {"measurement": "identity of cells after inhibiting CYP26 activity", "setting": "[1]; R115866 and SAG only (no RA)", "result": "did not suppress NKX2.1^+ FB-fate"}
    ]},
    {"smiles": "CNC1CCC(N(Cc2cccc(-c3ccncc3)c2)C(=O)c2sc3ccccc3c2Cl)CC1", "note": "(stereo not shown) [SAG]", "values": [
      {"measurement": "SAG concentration for effective induction of vMB NSC identity", "setting": "[1]; dSMADi, SAG from day 0, 9 DDC", "result": 50, "unit": "nM"}
    ]},
    {"smiles": "CC1(C)CCSc2ccc(C#Cc3ccc(C(=O)O)cn3)cc21", "note": "[tazarotenic acid]", "values": [
      {"measurement": "identity imposed by RA analogue with inhibition of CYP26 activity", "setting": "[1]", "result": "shift into a PHOX2B^+ HB identity"},
      {"measurement": "identity imposed by RA analogue", "setting": "[1]", "result": "LMX1A^+/NKX2.1^− vMB identity; also recorded: LMX1A+/NKX2.1− vMB identity"},
      {"measurement": "susceptibility to CYP26-mediated oxidation", "setting": "[2]", "result": "substrates for CYP26-mediated oxidation"}
    ]}
  ]
}
